Several values for one entry are separate records, joined by “and”; a condition that tells them apart may be missing. Equal values may be shown once. Bounds are passed on as bounds.

The viability, T/C is the result in the treated group divided by that in the control group, in per cent. In general, IC50 refers to the point on the concentration scale where inhibition reaches its midpoint.

For this assay, the system named is PDC tumor spheroids with HUVEC/MSC, viability. Description: Anticancer human tumor 439559-082-T-J2-PDC patient-derived colon adenocarcinoma cell line growth inhibition [TAK]. The note with it: for viability, T/C: stronger effect = lower value. An excerpt:
Combinatorial screen of targeted agents with TAK-243 and ipatasertib in multi-cell type tumor spheroids
A high-throughput screen of multi-cell type tumor spheroids was designed to identify active combinations of targeted small molecules and TAK-243 or ipatasertib. Complex spheroids include a stromal component modeled by human endothelial cells (HUVEC) and fibroblasts modeled by human mesenchymal stem cells (MSCs). The concentration ranges selected for each drug and investigational agent were based upon clinically achievable concentrations if the clinical Cmax of the agent was known.
Compounds. The drugs and investigational agents: TAK-243 (785004), ipatasertib (767898), everolimus (733504), selumetinib (741078), bortezomib (756655), trametinib (758246), ixazomib (758254), vemurafenib (761431), dabrafenib (764134), sapanisertib (764658), alpelisib (765974), and copanlisib (816437), were obtained from the National Cancer Institute (NCI) Developmental Therapeutics Program Chemical Repository. The FDA-approved anticancer drug set is available from the NCI Developmental Therapeutics Program. […] The stock solutions were prepared in dimethyl sulfoxide (DMSO, Sigma-Aldrich, St. Louis, MO, cat. D2650) at 800-fold the tested concentration and stored at -70 degrees C prior to their use. All drugs and investigational agents were tested over a range starting from a high concentration at or near the clinical Cmax and decreasing in half-log increments. If the clinical Cmax for an agent had not been determined, the highest concentration tested was 10 microM.
NCI60 Cell Culture. NCI60 cell lines were obtained from the NCI Developmental Therapeutics Program Tumor Repository. For each lot of cells, the Repository performed Applied Biosystems AmpFLSTR Identifiler testing with PCR amplification to confirm consistency with the published Identifier STR profile for each cell line. Cells were kept in continuous culture for no more than 20 passages. The optimal seeding densities for each of the cell lines at each time point assessed were determined prior to performing the concentration response studies. Briefly, the NCI60 human tumor lines were grown as monolayers in RPMI 1640 medium supplemented with 10% FBS and 2 mmol/L L-glutamine.
An additional 2 lines were from the NCI60 cell line panel including melanomas, MALME-3M and SK-MEL-2. Pooled donor human umbilical vein endothelial cells (HUVEC, Lonza, cat. CC-2519) and human mesenchymal stem cells (hMSC, Lonza, cat. PT-2501) were purchased from Lonza (Walkersville, MD).
PDMR cell lines were grown in complete medium (DC medium): Dulbecco's modified Eagle's medium (DMEM)/F12 supplemented with 5% fetal bovine serum (FBS), 2 mM L-glutamine, 100 U/mL penicillin and 100 µg/ml streptomycin, 0.4 µg/ml hydrocortisone, 10 ng/ml epidermal growth factor (EGF) recombinant human protein, 24 µg/mL adenine, and 0.1 mg/mL primocin. During culture from frozen stock vials, PDMR cells were cultured in the same medium containing 10 µM Y-27632 (see Table 3). The PDCs were cultured in complete DMEM/F12 media without 10 microM Y-27632 dihydrochloride for at least two passages prior to the screen. The pooled donor HUVEC and hMSC were cultured in endothelial cell growth medium 2 (PromoCell, Heidelberg, Germany, cat. C-22011) and mesenchymal stem cell growth medium 2 (PromoCell, cat. C-28009), respectively. For all experiments, HUVEC and hMSC were used at passages </=5.
For the pre-screen, cell seeding densities were determined from a titration spanning the range from 5,000 to 313 cells per well. The mct-spheroids including 60% malignant cells, 25% HUVEC and 15% MSC dispensed as a mixture into U-bottom Ultra-Low Attachment 384-well plates (Corning, NY)
High-throughput Drug Combination Screening.
Prior to their inoculation into 384-well plates, malignant cells, HUVEC, and hMSC were removed from T flasks using TrypLE express (Thermo Fisher Scientific, cat. 12605036) and harvested by centrifugation for 5 min at 233 x g. […]

[1] abbreviates: curve of first compound, second compound 0.3 µM.
The mark [2] stands for this setting: curve of first compound, second compound 0.949 µM.
Setting [3] is: curve of first compound, second compound 3 µM.
[4] abbreviates: curve of first compound, second compound 9.49 µM.
[5] abbreviates: curve of first compound, second compound 30 µM.
Setting [6] is: second compound 0.3 µM, first compound 0.00316 µM.
[7] abbreviates: second compound 0.3 µM, first compound 0.01 µM.
The mark [8] stands for this setting: second compound 0.3 µM, first compound 0.0316 µM.
[9] abbreviates: second compound 0.3 µM, first compound 0.1 µM.
The mark [10] stands for this setting: second compound 0.949 µM, first compound 0.00316 µM.
[11] abbreviates: second compound 0.949 µM, first compound 0.01 µM.
The mark [12] stands for this setting: second compound 0.949 µM, first compound 0.0316 µM.
Setting [13] is: second compound 0.949 µM, first compound 0.1 µM.
The mark [14] stands for this setting: second compound 3 µM, first compound 0.00316 µM.
Where [15] appears, read: second compound 3 µM, first compound 0.01 µM.
The mark [16] stands for this setting: second compound 3 µM, first compound 0.0316 µM.
Where [17] appears, read: second compound 3 µM, first compound 0.1 µM.
Setting [18] is: second compound 9.49 µM, first compound 0.00316 µM.
The mark [19] stands for this setting: second compound 9.49 µM, first compound 0.01 µM.
[20] abbreviates: second compound 9.49 µM, first compound 0.0316 µM.
Where [21] appears, read: second compound 9.49 µM, first compound 0.1 µM.
[22] abbreviates: second compound 30 µM, first compound 0.00316 µM.
Where [23] appears, read: second compound 30 µM, first compound 0.01 µM.
Where [24] appears, read: second compound 30 µM, first compound 0.0316 µM.
[25] abbreviates: second compound 30 µM, first compound 0.1 µM.
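Also: spheroids exposed to drugs for seven days before readout.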

On to `COC1CC2CCC(C)C(O)(O2)C(=O)C(=O)N2CCCCC2C(=O)OC(C(C)CC2CCC(OCCO)C(OC)C2)CC(=O)C(C)C=C(C)C(O)C(OC)C(=O)C(C)CC(C)C=CC=CC=C1C` (stereo not drawn), for which the viability, T/C was 110% and 103% (compound 0.000316 µM); 97.7% and 98.1% (compound 0.001 µM); 90.7% and 89.7% (compound 0.00316 µM); 82.7% and 90.2% (compound 0.01 µM); 90.9% and 86% (compound 0.0316 µM); 91.7% and 92.3% (compound 0.1 µM). Also, the IC50 (curve of compound) was > 100 nM.
With `CC(C)CC(NC(=O)C(Cc1ccccc1)NC(=O)c1cnccn1)B(O)O` (stereo not drawn), the viability, T/C (compound 31.6 pM) is 111% and 105%; the viability, T/C (compound 0.0001 µM) is 104% and 98.9%; the viability, T/C (compound 0.000316 µM) is 102% and 98.8%; the viability, T/C (compound 0.001 µM) was 103% and 101%; the viability, T/C (compound 0.00316 µM) was 100% and 97.5%; the viability, T/C (compound 0.01 µM) was 66.4% and 69.6%. Besides, the IC50 (curve of compound) is > 10 nM.
On to `COc1c(OCCCN2CCOCC2)ccc2c3n(c(=NC(=O)c4cnc(N)nc4)nc12)CCN3` + CC(C)NCC(C(=O)N1CCN(c2ncnc3c2C(C)CC3O)CC1)c1ccc(Cl)cc1, for which the IC50 under setting [1] was > 1000 nM; the IC50 under setting [2] was > 1000 nM; the IC50 under setting [3] was > 1000 nM; the IC50 under setting [4] is > 1000 nM; the IC50 under setting [5] was > 1000 nM. The viability, T/C is 98.6% under setting [6]; 89.5% under setting [7]; 71.3% under setting [8]; 73.3% under setting [9]; 61.8% (second compound 0.3 µM, first compound 0.316 µM); 66.9% (second compound 0.3 µM, first compound 1 µM). For the same compound, the viability, T/C by setting is: under setting [10], 98.5%; under setting [11], 91.5%; under setting [12], 76.2%; under setting [13], 72.4%; (second compound 0.949 µM, first compound 0.316 µM) 66.8%; (second compound 0.949 µM, first compound 1 µM) 65.8%. Also, the viability, T/C is, setting by setting: under setting [14], 85.1%; under setting [15], 88.4%; under setting [16], 75.5%; under setting [17], 71.3%; (second compound 3 µM, first compound 0.316 µM) 66.8%; (second compound 3 µM, first compound 1 µM) 69.7%. For the same compound, the viability, T/C is, setting by setting: under setting [18], 90.6%; under setting [19], 80.8%; under setting [20], 80.9%; under setting [21], 73.7%; (second compound 9.49 µM, first compound 0.316 µM) 67.8%; (second compound 9.49 µM, first compound 1 µM) 70.9%. The viability, T/C is, setting by setting: under setting [22], 83.9%; under setting [23], 79%; under setting [24], 72.6%; under setting [25], 68.9%; (second compound 30 µM, first compound 0.316 µM) 64.5%; (second compound 30 µM, first compound 1 µM) 72.7%.
Turning to `Cn1cnc2c(F)c(Nc3ccc(Br)cc3Cl)c(C(=O)NOCCO)cc21`, the viability, T/C was 101% and 110% (compound 0.00949 µM); 90.2% and 101% (compound 0.03 µM); 83.1% and 76.7% (compound 0.0949 µM); 71.4% and 79.2% (compound 0.3 µM); 74.4% and 74.2% (compound 0.949 µM); 65.5% and 64.2% (compound 3 µM). In addition, the IC50 (curve of compound) was > 3000 nM.
In the case of `CC(C)CC(NC(=O)CNC(=O)c1cc(Cl)ccc1Cl)B1OC(=O)CC(CC(=O)O)(C(=O)O)O1` (stereo not drawn), the viability, T/C by setting is: (compound 0.000316 µM) 111% and 114%; (compound 0.001 µM) 96.4% and 98.7%; (compound 0.00316 µM) 99.3% and 98.8%; (compound 0.01 µM) 93.5% and 90.3%; (compound 0.0316 µM) 85.8% and 77.8%; (compound 0.1 µM) 62.1% and 56.6%. Also, the IC50 (curve of compound) is > 100 nM.
In the case of `COC1CC2CCC(C)C(O)(O2)C(=O)C(=O)N2CCCCC2C(=O)OC(C(C)CC2CCC(OCCO)C(OC)C2)CC(=O)C(C)C=C(C)C(O)C(OC)C(=O)C(C)CC(C)C=CC=CC=C1C` (stereo not drawn) + CC(C)NCC(C(=O)N1CCN(c2ncnc3c2C(C)CC3O)CC1)c1ccc(Cl)cc1, the IC50 was > 100 nM under setting [1]; > 100 nM under setting [2]; > 100 nM under setting [3]; > 100 nM under setting [4]; > 100 nM under setting [5]. For the same compound, the viability, T/C was 110% (second compound 0.3 µM, first compound 0.000316 µM); 97.1% (second compound 0.3 µM, first compound 0.001 µM); 81.7% under setting [6]; 90.4% under setting [7]; 83.7% under setting [8]; 82% under setting [9]. For the same compound, the viability, T/C is 103% (second compound 0.949 µM, first compound 0.000316 µM); 88.6% (second compound 0.949 µM, first compound 0.001 µM); 85.9% under setting [10]; 87.4% under setting [11]; 87.4% under setting [12]; 79.8% under setting [13]. Besides, the viability, T/C was 97.4% (second compound 3 µM, first compound 0.000316 µM); 101% (second compound 3 µM, first compound 0.001 µM); 87.6% under setting [14]; 77.9% under setting [15]; 81.5% under setting [16]; 77.3% under setting [17]. Moreover, the viability, T/C was 91.4% (second compound 9.49 µM, first compound 0.000316 µM); 88.6% (second compound 9.49 µM, first compound 0.001 µM); 81.3% under setting [18]; 73.7% under setting [19]; 75.2% under setting [20]; 76.8% under setting [21]. Moreover, the viability, T/C (second compound 30 µM, first compound 0.000316 µM) was 93.1%; the viability, T/C (second compound 30 µM, first compound 0.001 µM) was 91.2%; the viability, T/C under setting [22] is 82.8%; the viability, T/C under setting [23] was 77.7%; the viability, T/C under setting [24] is 79.1%; the viability, T/C under setting [25] was 72.7%.

The values above are taken from PubChem BioAssay AID2060356 (Molecular Pharmacology Branch, DTP, NCI, 2025).
